From US8974793B2, “Methods and systems for inducing immunologic tolerance to non-self antigens” (The Governors Of The University Of Alberta, priority 2008, dated 2015)

Test: Blood plasma stability of A type I antigen functionalized silica-coated stainless steel (modified ELISA readout)
Format: in vitro ADME, pig
Details: I-14 bound to silica-coated stainless steel, 12 days agitation
Experimental: Several silica-coated stainless steel samples bearing the A type I antigen were prepared, according to the general procedure defined above. Each of the samples was placed in three different types of pig blood plasma (blood group O, blood group A and commercial pooled blood group O plasma). The samples were agitated on a shaker table for 12 days. After 12 days, the samples were removed from the pig blood plasma and placed in ethanol.
Each silica-coated stainless steel stent surface was treated with a solution of 2% BSA in PBST (200 μL) and shaken (14 h, 5° C.). The surface was then removed and then incubated with mouse anti-A IgM antibodies (5° C., 14 h, 0.023 mg/mL, 50 μL). The surface was then removed, thoroughly washed with PBST and then treated with a secondary HRP conjugated goat anti-mouse IgM antibody (21° C., 3 h, 0.013 mg/mL, 50 μL). The surface was thoroughly washed with PBST to remove unbound antibody and then treated with a solution of SigmaFast OPD (200 μL, 1 h). An aliquot of this solution (100 μL) was then taken and the absorbance measured at 450 nm.

attachment of antigen to silica-coated stainless steel after plasma incubation (modified ELISA, anti-A IgM, absorbance 450 nm) (pig A blood plasma): confirming the attachment
attachment of antigen to silica-coated stainless steel after plasma incubation (modified ELISA, anti-A IgM, absorbance 450 nm) (pig O blood plasma): confirming the attachment
attachment of antigen to silica-coated stainless steel after plasma incubation (modified ELISA, anti-A IgM, absorbance 450 nm) (pig-pooled O blood plasma): confirming the attachment
SMILES: CO[Si](CCCSCCCCCCCCO[C@@H]1O[C@H](CO)[C@@H](O)[C@H](O[C@@H]2O[C@H](CO)[C@H](O)[C@H](O[C@H]3O[C@H](CO)[C@H](O)[C@H](O)[C@H]3NC(C)=O)[C@H]2O[C@@H]2O[C@@H](C)[C@@H](O)[C@@H](O)[C@@H]2O)[C@H]1NC(C)=O)(OC)OC [I-14, 8-(3-(trimethoxysilyl)propylthio)octan-1-yl 2-N-Acetyl-3-O-(3-O-(2-N-acetyl-2-deoxy-α-D-galactopyranosyl)-2-O-(α-L-fucopyranosyl)-β-D-galactopyranosyl)-2-deoxy-β-D-glucopyranoside]
